The results in this text go back to publication doi:10.1101/2023.02.01.526632v1 (biorxiv, 2023).

This assay has as its target T1, BAP1 (Homo sapiens, UniProt Q92560).
T1 sequence (Q92560 1-729): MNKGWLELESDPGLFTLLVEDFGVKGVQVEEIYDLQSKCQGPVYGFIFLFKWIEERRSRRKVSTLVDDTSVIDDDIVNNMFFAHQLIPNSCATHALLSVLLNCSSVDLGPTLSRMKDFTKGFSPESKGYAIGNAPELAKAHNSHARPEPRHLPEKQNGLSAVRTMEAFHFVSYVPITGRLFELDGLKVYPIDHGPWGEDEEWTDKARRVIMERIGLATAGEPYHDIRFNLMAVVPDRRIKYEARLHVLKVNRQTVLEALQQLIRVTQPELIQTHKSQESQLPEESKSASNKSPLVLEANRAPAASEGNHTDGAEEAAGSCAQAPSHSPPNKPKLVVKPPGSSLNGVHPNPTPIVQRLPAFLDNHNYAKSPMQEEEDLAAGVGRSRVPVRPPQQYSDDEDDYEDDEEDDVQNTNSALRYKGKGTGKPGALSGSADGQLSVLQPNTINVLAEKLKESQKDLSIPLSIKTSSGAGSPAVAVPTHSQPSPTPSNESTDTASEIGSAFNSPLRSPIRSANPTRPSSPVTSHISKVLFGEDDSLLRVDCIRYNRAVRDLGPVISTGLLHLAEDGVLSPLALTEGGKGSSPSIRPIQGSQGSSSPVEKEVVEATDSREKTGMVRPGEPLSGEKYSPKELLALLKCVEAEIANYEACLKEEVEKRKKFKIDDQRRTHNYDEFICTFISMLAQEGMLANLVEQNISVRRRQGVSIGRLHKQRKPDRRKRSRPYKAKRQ
Kind of assay: competition of Biotin-Ahx-Ub-VS labelling, DIA LC-MS/MS. It counts as biochemical. To be noted: covalent; lysate, 3 h preincubation, 0.5 μM ubiquitin probe.

As usually defined, the IC50 is the concentration that inhibits the measured activity by half. Consider `O=C(CCl)N1CCCC1c1ccc2c(c1)OCCO2` (stereo not shown) [compound 3, fragment 3], for which the IC50 is ~10 µM.
